This experiment addresses human C5 (Homo sapiens, UniProt P01031). The experiment can be described thus: SPR multi-cycle kinetics, binding to human C5. The conditions noted are these: for fold change in KD relative to parent: relative to the unmodified parent knob domain, Figure 5H.
The mark [1] stands for this setting: KD, peptide after reduction and capping of cysteines with iodoacetamide (IAM).
Setting [2] is: KD, reduced and IAM-capped knob domains, S4.
Setting [3] is: reduced and IAM-capped knob domains, S4.

Read-outs that look alike come from different tables or passages of the source. Bridge positions count the residues as written; N and C are the ends. Square brackets hold non-standard residues; d marks the D form. Ends that are not written are not given here. Peptide text beside a SMILES is read from it. * marks the point of attachment. Cam = NC(=O)C*

Data on seven compounds can be found in publication doi:10.1101/2021.06.16.448769v1 (bioRxiv, 2021).

What is called Kd is a measure of binding affinity in units of concentration. The koff is a measure of how fast the partners let go of each other. High values mean fast dissociation, low ones slow dissociation. As a reminder, the kon is the second-order rate constant of association. A high value points to faster complex formation.

human C5, sequence (P01031 19-673 limits assumed): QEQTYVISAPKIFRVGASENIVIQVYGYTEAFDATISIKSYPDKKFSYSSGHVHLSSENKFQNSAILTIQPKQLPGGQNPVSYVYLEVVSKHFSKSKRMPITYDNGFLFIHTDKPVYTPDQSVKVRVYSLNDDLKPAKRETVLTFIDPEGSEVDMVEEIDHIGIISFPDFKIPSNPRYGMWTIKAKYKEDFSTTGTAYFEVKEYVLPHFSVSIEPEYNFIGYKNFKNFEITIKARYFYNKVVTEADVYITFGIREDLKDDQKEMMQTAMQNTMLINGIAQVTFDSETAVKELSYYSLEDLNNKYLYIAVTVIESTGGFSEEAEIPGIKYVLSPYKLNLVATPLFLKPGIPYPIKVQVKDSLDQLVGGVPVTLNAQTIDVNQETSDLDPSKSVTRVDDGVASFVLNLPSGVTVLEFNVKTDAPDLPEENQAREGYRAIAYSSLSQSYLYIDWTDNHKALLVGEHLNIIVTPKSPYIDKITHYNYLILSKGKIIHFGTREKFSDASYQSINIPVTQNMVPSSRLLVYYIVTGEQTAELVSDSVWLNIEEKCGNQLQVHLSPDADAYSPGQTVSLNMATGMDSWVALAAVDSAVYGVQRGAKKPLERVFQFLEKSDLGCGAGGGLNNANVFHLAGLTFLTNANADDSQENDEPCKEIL
human C5, sequence (P01031 678-1676 limits assumed): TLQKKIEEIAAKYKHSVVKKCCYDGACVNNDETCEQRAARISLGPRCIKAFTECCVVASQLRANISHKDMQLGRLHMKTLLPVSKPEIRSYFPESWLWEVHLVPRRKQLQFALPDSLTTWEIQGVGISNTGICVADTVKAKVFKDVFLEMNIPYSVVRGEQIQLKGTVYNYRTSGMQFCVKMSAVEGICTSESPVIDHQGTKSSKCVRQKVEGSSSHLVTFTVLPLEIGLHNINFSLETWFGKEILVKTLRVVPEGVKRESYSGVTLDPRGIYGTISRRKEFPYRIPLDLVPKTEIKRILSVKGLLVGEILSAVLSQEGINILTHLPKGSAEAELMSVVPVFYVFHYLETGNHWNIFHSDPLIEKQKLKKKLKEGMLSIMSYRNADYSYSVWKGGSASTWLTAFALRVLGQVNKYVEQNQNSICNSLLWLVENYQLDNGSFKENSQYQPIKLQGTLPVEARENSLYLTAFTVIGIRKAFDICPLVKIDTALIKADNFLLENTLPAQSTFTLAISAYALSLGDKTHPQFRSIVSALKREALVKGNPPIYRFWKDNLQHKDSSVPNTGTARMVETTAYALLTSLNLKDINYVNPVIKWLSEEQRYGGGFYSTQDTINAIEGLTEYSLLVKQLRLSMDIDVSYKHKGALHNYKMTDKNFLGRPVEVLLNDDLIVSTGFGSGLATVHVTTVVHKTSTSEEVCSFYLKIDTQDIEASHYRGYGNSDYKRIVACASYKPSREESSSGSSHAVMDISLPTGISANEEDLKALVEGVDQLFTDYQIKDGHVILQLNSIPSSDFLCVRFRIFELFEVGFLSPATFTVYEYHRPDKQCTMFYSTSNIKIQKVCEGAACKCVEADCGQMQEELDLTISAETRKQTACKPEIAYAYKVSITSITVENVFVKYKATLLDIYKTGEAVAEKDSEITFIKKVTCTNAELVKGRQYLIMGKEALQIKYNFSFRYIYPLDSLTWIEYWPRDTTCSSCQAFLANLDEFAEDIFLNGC

“GC(Cam)PPGYKSGVDC(Cam)SPGSEC(Cam)KWGC(Cam)YAVDGRRYGGYGADSGVGS-OH [K57chemFE reduced and capped]” returned a Kd under setting [1] of 76 nM. This compound also displayed a Kd under setting [2] of 75.6 nM. Under setting [3], this compound yielded a koff of 0.000358 s⁻¹ and an association rate constant (kon) of 4740 M⁻¹ s⁻¹. `CC[C@H](C)[C@@H]1NC(=O)[C@H](CC(N)=O)NC(=O)[C@H](C(C)C)NC(=O)CNC(=O)[C@@H]2CSSC[C@@H](C(=O)NCC(=O)N[C@@H](Cc3c[nH]cn3)C(=O)N[C@@H](Cc3ccccc3)C(=O)N[C@@H](CC(C)C)C(=O)N[C@@H](CC(N)=O)C(=O)N[C@@H](CO)C(=O)NCC(=O)N3CCC[C@H]3C(=O)N[C@@H](CC(N)=O)C(=O)N[C@H](C(=O)N[C@@H](CO)C(=O)N3CCC[C@H]3C(=O)N[C@@H](Cc3ccc(O)cc3)C(=O)N[C@H](C(=O)N[C@@H](CO)C(=O)N[C@H](C(=O)O)[C@@H](C)O)C(C)C)[C@@H](C)CC)NC(=O)CNC(=O)[C@H](Cc3c[nH]c4ccccc34)NC(=O)[C@H](CCCNC(=N)N)NC(=O)CNC(=O)[C@H](CSSC[C@H](NC(=O)[C@@H](N)[C@@H](C)O)C(=O)N3CCC[C@H]3C(=O)N[C@@H](CCC(=O)O)C(=O)NCC(=O)N[C@@H](Cc3c[nH]c4ccccc34)C(=O)N[C@@H](CO)C(=O)N[C@@H](CCC(=O)O)C(=O)N2)NC(=O)[C@H](CCC(=O)O)NC(=O)[C@H](Cc2ccc(O)cc2)NC(=O)CNC(=O)[C@H](Cc2ccc(O)cc2)NC1=O` [K92chemFE A12N] (H-TCPEGWSECGVNIYGYECGRWGCGHFLNSGPNISPYVST-OH; disulfide 2-18, 9-23; N-terminus and C-terminus assumed): the “fold change in KD relative to parent” value was 4.6. Regarding `CC[C@H](C)[C@H](NC(=O)[C@H](C)NC(=O)[C@@H](NC(=O)CNC(=O)[C@H](CSCC(N)=O)NC(=O)[C@H](CCC(=O)O)NC(=O)[C@H](CO)NC(=O)[C@H](Cc1c[nH]c2ccccc12)NC(=O)CNC(=O)[C@H](CCC(=O)O)NC(=O)[C@@H]1CCCN1C(=O)[C@H](CSCC(N)=O)NC(=O)[C@@H](N)[C@@H](C)O)C(C)C)C(=O)N[C@@H](Cc1ccc(O)cc1)C(=O)NCC(=O)N[C@@H](Cc1ccc(O)cc1)C(=O)N[C@@H](CCC(=O)O)C(=O)N[C@@H](CSCC(N)=O)C(=O)NCC(=O)N[C@@H](CCCNC(=N)N)C(=O)N[C@@H](Cc1c[nH]c2ccccc12)C(=O)NCC(=O)N[C@@H](CSCC(N)=O)C(=O)NCC(=O)N[C@@H](Cc1c[nH]cn1)C(=O)N[C@@H](Cc1ccccc1)C(=O)N[C@@H](CC(C)C)C(=O)N[C@@H](CC(N)=O)C(=O)N[C@@H](CO)C(=O)NCC(=O)N1CCC[C@H]1C(=O)N[C@@H](CC(N)=O)C(=O)N[C@H](C(=O)N[C@@H](CO)C(=O)N1CCC[C@H]1C(=O)N[C@@H](Cc1ccc(O)cc1)C(=O)N[C@H](C(=O)N[C@@H](CO)C(=O)N[C@H](C(=O)O)[C@@H](C)O)C(C)C)[C@@H](C)CC` [K92 chemFE reduced and capped] (H-TC(Cam)PEGWSEC(Cam)GVAIYGYEC(Cam)GRWGC(Cam)GHFLNSGPNISPYVST-OH; N-terminus assumed), the dissociation constant (Kd) runs as follows: under setting [1], 2000 nM; under setting [2], 2350 nM. The compound further came in with a koff under setting [3] of 0.000172 s⁻¹. The compound also had a kon under setting [3] of 72.9 M⁻¹ s⁻¹. In the case of `CC[C@H](C)[C@@H]1NC(=O)[C@H](C)NC(=O)[C@H](C(C)C)NC(=O)CNC(=O)[C@@H]2CSSC[C@@H]3NC(=O)CNC(=O)[C@H](Cc4c[nH]c5ccccc45)NC(=O)[C@H](CCCNC(=N)N)NC(=O)CNC(=O)[C@H](CSSC[C@H](NC(=O)[C@H]([C@@H](C)O)NC(=O)[C@H](Cc4ccc(O)cc4)NC(=O)[C@@H]4CCCN4C(=O)[C@H](CO)NC(=O)[C@H]([C@@H](C)CC)NC(=O)[C@H](CC(N)=O)NC(=O)[C@@H]4CCCN4C(=O)CNC(=O)[C@H](CO)NC(=O)[C@H](CC(N)=O)NC(=O)[C@H](CC(C)C)NC(=O)[C@H](Cc4ccccc4)NC(=O)[C@H](Cc4c[nH]cn4)NC(=O)CNC3=O)C(=O)N3CCC[C@H]3C(=O)N[C@@H](CCC(=O)O)C(=O)NCC(=O)N[C@@H](Cc3c[nH]c4ccccc34)C(=O)N[C@@H](CO)C(=O)N[C@@H](CCC(=O)O)C(=O)N2)NC(=O)[C@H](CCC(=O)O)NC(=O)[C@H](Cc2ccc(O)cc2)NC(=O)CNC(=O)[C@H](Cc2ccc(O)cc2)NC1=O` [K92chemFE^cyclic] (cyclo(AIYGYECGRWGCGHFLNSGPNISPYTCPEGWSECGV); disulfide 7-27, 12-34), the “fold change in KD relative to parent” value is reported as 39.7.

For the compound `CSCC[C@@H]1NC(=O)[C@@H]2CCCN2C(=O)[C@@H](NC(=O)[C@@H]2CSSC[C@H](NC(=O)[C@@H](N)CO)C(=O)N3CCC[C@H]3C(=O)N[C@@H](CC(=O)O)C(=O)NCC(=O)N[C@@H](Cc3ccccc3)C(=O)N[C@@H](CO)C(=O)N[C@@H](Cc3ccc(O)cc3)C(=O)N[C@@H](CCCNC(=N)N)C(=O)N[C@@H](CO)C(=O)N[C@@H](Cc3c[nH]c4ccccc34)C(=O)N[C@@H](CC(=O)O)C(=O)N[C@@H](CC(=O)O)C(=O)N[C@@H](Cc3ccccc3)C(=O)N2)CSSC[C@@H](C(=O)N[C@@H](CC(C)C)C(=O)N[C@@H](C)C(=O)N2CCC[C@H]2C(=O)N[C@@H](CCCNC(=N)N)C(=O)N[C@@H](CC(N)=O)C(=O)O)NC(=O)[C@H](CCCNC(=N)N)NC(=O)CNC(=O)[C@H](C(C)C)NC1=O` [K149chemSD-A] (H-SCPDGFSYRSWDDFCCPMVGRCLAPRN-OH; disulfide 2-15, 16-22; N-terminus assumed), the Kd (read-out: mean KD, SPR multi-cycle kinetics, mean of n=3) turned out to be 7.3 nM. Consider `CC[C@H](C)[C@H](NC(=O)[C@H](CC(N)=O)NC(=O)[C@@H]1CCCN1C(=O)CNC(=O)[C@H](CO)NC(=O)[C@H](CC(N)=O)NC(=O)[C@H](CC(C)C)NC(=O)[C@H](Cc1ccccc1)NC(=O)[C@H](Cc1c[nH]cn1)NC(=O)CNC(=O)[C@@H]1CSSC[C@@H]2NC(=O)[C@H](CCC(=O)O)NC(=O)[C@H](CO)NC(=O)[C@H](Cc3c[nH]c4ccccc34)NC(=O)CNC(=O)[C@H](CCC(=O)O)NC(=O)[C@@H]3CCCN3C(=O)[C@@H](NC(=O)[C@@H](N)[C@@H](C)O)CSSC[C@H](NC(=O)[C@H](CCC(=O)O)NC(=O)[C@H](Cc3ccc(O)cc3)NC(=O)CNC(=O)[C@H](Cc3ccc(O)cc3)NC(=O)[C@H]([C@@H](C)CC)NC(=O)[C@@H](Cc3c[nH]c4ccccc34)NC(=O)[C@H](C(C)C)NC(=O)CNC2=O)C(=O)NCC(=O)N[C@@H](CCCNC(=N)N)C(=O)N[C@@H](Cc2c[nH]c3ccccc23)C(=O)NCC(=O)N1)C(=O)N[C@@H](CO)C(=O)N1CCC[C@H]1C(=O)N[C@@H](Cc1ccc(O)cc1)C(=O)N[C@H](C(=O)N[C@@H](CO)C(=O)N[C@H](C(=O)O)[C@@H](C)O)C(C)C` [K92chemFE A12d-W] (H-TCPEGWSECGV[dW]IYGYECGRWGCGHFLNSGPNISPYVST-OH; disulfide 2-18, 9-23; N-terminus and C-terminus assumed), for which the “fold change in KD relative to parent” value came out at 165.6. Take `CSCC[C@@H]1NC(=O)[C@@H]2CCCN2C(=O)[C@@H]2CSSC[C@H](NC(=O)[C@H](CCCNC(=N)N)NC(=O)CNC(=O)[C@H](C(C)C)NC1=O)C(=O)N[C@@H](CC(C)C)C(=O)N[C@@H](C)C(=O)N1CCC[C@H]1C(=O)N[C@@H](CCCNC(=N)N)C(=O)N[C@@H](CC(N)=O)C(=O)N[C@@H]([C@@H](C)O)C(=O)N[C@@H](CO)C(=O)N[C@H]1CSSC[C@H](NC(=O)[C@H](Cc3ccccc3)NC(=O)[C@H](CC(=O)O)NC(=O)[C@H](CC(=O)O)NC(=O)[C@H](Cc3c[nH]c4ccccc34)NC(=O)[C@H](CO)NC(=O)[C@H](CCCNC(=N)N)NC(=O)[C@H](Cc3ccc(O)cc3)NC(=O)[C@H](CO)NC(=O)[C@H](Cc3ccccc3)NC(=O)CNC(=O)[C@H](CC(=O)O)NC(=O)[C@@H]3CCCN3C1=O)C(=O)N2` [K149chemFE^cyclic] (cyclo(APRNTSCPDGFSYRSWDDFCCPMVGRCL); disulfide 7-20, 21-27 (inferred); ring closure inferred): the “fold change in KD relative to parent” value is given as 0.2.
